# Reference: the NIST ThermoML archive (doi:10.1016/j.tca.2012.08.001)
# Numbers after ± are expanded uncertainties.
# Assays:
# [1] = refractive index (Na D-line) (dimensionless); conditions: 298.2 K; 101.33 kPa; Liquid; Standard Abbe refractometry
# [2] = 298.2 K; 101.33 kPa; Liquid; Vibrating tube method
SMILES,refractive index [1],mass density [2] [kg/m3]
CCCCCCCCCCO [decan-1-ol],1.4344 ± 0.2,826.8 ± 0.36
O=CO [formic acid],1.3713 ± 0.2,1219.32 ± 0.61
O [water],1.3324 ± 0.2,
